Measured values: ChEMBL document CHEMBL1201862, “PubChem BioAssay data set” (2004)
Calls of active or inactive are those of the source.

Assays:
[1] = test system: Streptococcus sp. 'group A'; experiment: Streptococcus pyogenes SK(-)GAS viability under kanamycin – luminescence, BacTiterGlo, confirmation, counter-screen for streptokinase expression inhibitor project, dose response (AID 1900); assay type: functional, organism-based
[2] = target: T1, Streptokinase A (Streptococcus pyogenes serotype M1, UniProt P10520); experiment: viability-normalized secreted streptokinase activity reduction – plasminogen activation absorbance, OD405, dose response (AID 1914); assay type: functional, Streptococcus pyogenes M1 GAS;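 also: secreted streptokinase activity via plasminogen activation per viability signal from cell pellet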
T1 sequence (P10520 whole entry): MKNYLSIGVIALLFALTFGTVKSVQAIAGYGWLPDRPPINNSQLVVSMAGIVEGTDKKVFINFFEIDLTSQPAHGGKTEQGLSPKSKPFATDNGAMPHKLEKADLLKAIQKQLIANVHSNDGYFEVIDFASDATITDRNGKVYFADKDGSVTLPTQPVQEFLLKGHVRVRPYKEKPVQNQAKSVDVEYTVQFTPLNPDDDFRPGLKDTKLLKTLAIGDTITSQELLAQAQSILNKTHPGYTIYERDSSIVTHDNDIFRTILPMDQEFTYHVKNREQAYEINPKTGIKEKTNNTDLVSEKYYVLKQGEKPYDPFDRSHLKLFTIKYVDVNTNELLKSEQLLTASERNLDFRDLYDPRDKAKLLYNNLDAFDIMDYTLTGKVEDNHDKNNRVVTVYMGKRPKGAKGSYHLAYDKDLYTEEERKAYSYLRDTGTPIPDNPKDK

[3] = test system: Streptococcus; experiment: GAS UMAA2166 growth inhibition – luminescence, BacTiterGlo, counter-screen for streptokinase expression inhibitor project, dose response (AID 1915); assay type: functional, organism-based;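 also: potency for reduction of bacterial viability or growth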
[4] = target: Cytochrome P450 2C19 (Homo sapiens, UniProt P33261); experiment: Cytochrome panel assay with activity outcomes. Panel member name: p450-cyp2c19 Compounds with AC50 equal or less than 10 uM are considered active; assay type: functional
Cytochrome P450 2C19, sequence (P33261 whole entry): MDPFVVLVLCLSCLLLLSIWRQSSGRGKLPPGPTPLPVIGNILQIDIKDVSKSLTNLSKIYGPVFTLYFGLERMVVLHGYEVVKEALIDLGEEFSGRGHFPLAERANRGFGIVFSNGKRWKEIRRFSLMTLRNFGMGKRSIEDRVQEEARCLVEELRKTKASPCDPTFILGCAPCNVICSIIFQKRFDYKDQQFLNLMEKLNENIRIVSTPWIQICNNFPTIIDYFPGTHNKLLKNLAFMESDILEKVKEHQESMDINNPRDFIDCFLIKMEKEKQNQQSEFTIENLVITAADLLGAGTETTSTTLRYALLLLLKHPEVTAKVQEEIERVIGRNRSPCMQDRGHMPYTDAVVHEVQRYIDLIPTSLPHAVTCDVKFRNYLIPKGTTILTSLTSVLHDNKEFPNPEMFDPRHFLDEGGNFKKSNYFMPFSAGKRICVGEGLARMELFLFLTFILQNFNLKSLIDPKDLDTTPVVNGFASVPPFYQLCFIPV

[5] = target: Cytochrome P450 2D6 (Homo sapiens, UniProt P10635);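 also: CYP2D6 member of a cytochrome P450 panel assay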
Cytochrome P450 2D6, sequence (P10635 whole entry): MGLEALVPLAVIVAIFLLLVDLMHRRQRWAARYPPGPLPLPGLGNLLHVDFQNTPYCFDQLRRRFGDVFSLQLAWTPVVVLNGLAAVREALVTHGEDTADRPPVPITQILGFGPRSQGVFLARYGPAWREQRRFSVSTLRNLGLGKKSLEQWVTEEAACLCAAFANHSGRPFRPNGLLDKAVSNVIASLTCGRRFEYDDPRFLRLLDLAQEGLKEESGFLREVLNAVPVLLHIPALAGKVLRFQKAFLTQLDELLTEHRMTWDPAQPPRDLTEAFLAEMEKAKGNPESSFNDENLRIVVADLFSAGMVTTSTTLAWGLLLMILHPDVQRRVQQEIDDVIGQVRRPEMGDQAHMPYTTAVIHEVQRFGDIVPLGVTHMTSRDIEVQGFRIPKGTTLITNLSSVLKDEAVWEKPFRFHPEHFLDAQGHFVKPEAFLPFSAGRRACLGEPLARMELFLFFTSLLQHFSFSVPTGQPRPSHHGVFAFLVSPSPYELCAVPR

[6] = Trypanosoma cruzi growth suppression in host cells – NIH3T3 host cells, beta-gal luminescence, confirmation (AID 2044); assay type: functional, cell-based;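 also: intracellular parasites grown in NIH/3T3 mouse fibroblasts as host cells; luminescent beta-galactosidase reporter signal from transgenic T. cruzi replicating inside host cells; inhibitors lower the luminescence signal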
[7] = NIH3T3 cell viability loss – ATP luminescence, mouse fibroblasts, counter-screen, dose response (AID 2010); assay type: functional, cell-based;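 also: cells exposed to compound for about 90 hours before reading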
[8] = target: T2, Corticotropin-releasing factor receptor 2/Corticotropin-releasing factor-binding protein (Homo sapiens, UniProt P24387+Q13324); experiment: activators of CRF receptor 2 with binding protein – uHTS hits, confirmation (AID 602473); assay type: functional; conditions: read-out: EC50_Mean
T2 sequence (Q13324 whole entry): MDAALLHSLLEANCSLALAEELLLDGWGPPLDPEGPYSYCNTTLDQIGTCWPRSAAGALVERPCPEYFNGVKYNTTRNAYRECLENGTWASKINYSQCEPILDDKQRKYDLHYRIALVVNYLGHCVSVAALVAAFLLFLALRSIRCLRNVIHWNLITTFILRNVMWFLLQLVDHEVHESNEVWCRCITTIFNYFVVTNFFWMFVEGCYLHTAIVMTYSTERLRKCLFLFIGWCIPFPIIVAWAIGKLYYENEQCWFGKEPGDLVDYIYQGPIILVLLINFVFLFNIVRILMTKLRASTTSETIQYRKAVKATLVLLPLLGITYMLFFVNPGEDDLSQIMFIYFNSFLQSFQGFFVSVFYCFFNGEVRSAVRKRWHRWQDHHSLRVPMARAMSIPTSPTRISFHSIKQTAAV
T2 sequence (P24387 whole entry): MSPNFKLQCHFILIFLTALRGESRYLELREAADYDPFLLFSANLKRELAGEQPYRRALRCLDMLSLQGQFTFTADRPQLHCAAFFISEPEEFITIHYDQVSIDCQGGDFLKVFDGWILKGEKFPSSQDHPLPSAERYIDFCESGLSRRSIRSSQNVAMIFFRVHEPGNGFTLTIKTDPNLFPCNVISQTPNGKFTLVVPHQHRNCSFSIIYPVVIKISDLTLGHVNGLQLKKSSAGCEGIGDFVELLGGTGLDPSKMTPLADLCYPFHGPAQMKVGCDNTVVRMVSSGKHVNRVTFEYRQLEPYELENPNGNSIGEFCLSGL

[9] = target: T2, Corticotropin-releasing factor receptor 2/Corticotropin-releasing factor-binding protein; experiment: Dose Response confirmation of uHTS hits for small molecule antagonists of the CRF-binding protein and CRF-R2 receptor complex.; assay type: functional; conditions: read-out: IC50_Mean

**Q.** With `COc1ccccc1NC(=O)C(=O)NNC(=O)COc1ccc2ccccc2c1` as the molecule, how does the EC50 [1] read?
**A.** 4.14 µM (active)

**Q.** What about the EC50 [2] of the same molecule?
**A.** > 150 µM (not active)

**Q.** And the EC50 [3]?
**A.** 17.7 µM (active)

**Q.** For `O=C(O)Cc1ccc2ocnc2c1`, which AC50 [4] is on record?
**A.** inconclusive

**Q.** With `O=c1c2ccccc2c(-c2ccccc2)nn1-c1ccc(Cl)c(Cl)c1` as the molecule, how does the AC50 [5] read?
**A.** 10 µM (inconclusive)

**Q.** For `Cc1cc(C)c2nc(N3C(=O)C(O)=C(C(=O)c4ccco4)C3c3ccco3)sc2c1` (stereo not given), which EC50 [1] is on record?
**A.** 2.52 µM (active)

**Q.** What about the EC50 [3] of the same molecule?
**A.** 5.86 µM (active)

**Q.** With `Cc1cccc(CNc2ncncc2-c2cccnc2)c1` as the molecule, how does the AC50 [5] read?
**A.** 25.1 µM (inconclusive)

**Q.** For `O=C(Nc1cccc(F)c1)NC1CCN(Cc2ccccc2)CC1`, which EC50 [6] is on record?
**A.** 0.736 µM (active)

**Q.** And the EC50 [7]?
**A.** > 60 µM (not active)

**Q.** What does the source list for `Cc1ccc2cc3cc(C(=O)N(CC(=O)NC4CCCC4)c4cccc(C)c4C)sc3nc2c1`?
**A.** EC50 [6]: 1.61 µM (active); EC50 [7]: > 30 µM (not active)

**Q.** With `Cc1cc(=O)oc(C)c1C(=O)NCc1ccccn1` as the molecule, how does the AC50 [4] read?
**A.** inconclusive

**Q.** What does the source list for `CC(=O)N(CCCN(C)C)c1nc2ccc(C)cc2s1`?
**A.** EC50 [6]: 0.236 µM (active); EC50 [7]: > 60 µM (not active)

**Q.** What does the source list for `CC(=O)Oc1ccccc1C1=NN(C(=O)/C=C/c2ccccc2)C(c2ccccc2)C1` (stereo not given)?
**A.** EC50 [1]: 17.1 µM (active); EC50 [2]: > 150 µM (not active); EC50 [3]: > 150 µM (not active)

**Q.** With `Cc1ccc(S(=O)(=O)Nc2cc(O)nc3c2CCC3)cc1` as the molecule, how does the AC50 [5] read?
**A.** 2.51 µM (inconclusive)

**Q.** For `CC(C)CN(CC(C)C)S(=O)(=O)N1CCC(C(=O)NCc2ccc(F)cc2)CC1`, which AC50 ([4]; read-out: AC50) is on record?
**A.** 25.1 µM (inconclusive)

**Q.** Which results are given for `c1ccc(Oc2nc(-c3ccccn3)nc3ccccc23)cc1`?
**A.** EC50 [1]: 44.1 µM (active); EC50 [2]: > 150 µM (not active); EC50 [6]: 3.8 µM (active); EC50 [7]: > 60 µM (not active); EC50 [3]: 22.5 µM (active)

**Q.** With `CC1CCN(C(=O)c2ccc3c(c2)NC(=O)/C(=C/c2ccccc2)S3)CC1` as the molecule, how does the EC50 [1] read?
**A.** 2.64 µM (active)

**Q.** What about the EC50 [2] of the same molecule?
**A.** > 150 µM (not active)

**Q.** And the EC50 [3]?
**A.** 6.87 µM (active)

**Q.** For `CCC(C)(C)n1nnnc1C(c1cccs1)N1CCN(c2nc3ccccc3s2)CC1` (stereo not given), which EC50 [6] is on record?
**A.** 1.96 µM (active)

**Q.** What about the EC50 [7] of the same molecule?
**A.** 8.58 µM (active)

**Q.** For `O=C(O)c1ccc(N=Nc2c(O)[nH]c3ccc(Br)cc23)cc1`, which EC50 [1] is on record?
**A.** 4.19 µM (active)

**Q.** And the EC50 [3]?
**A.** 8.12 µM (active)

**Q.** With `CC(=O)NC(=S)Nc1ccc(S(=O)(=O)N(C)Cc2ccccc2)cc1` as the molecule, how does the EC50 [6] read?
**A.** 1.22 µM (active)

**Q.** And the EC50 [7]?
**A.** > 30 µM (not active)

**Q.** Which EC50 [8] does the source give for `Cc1cc2nc(/C(C#N)=C\c3ccc(-c4ccccc4C(=O)O)o3)[nH]c2cc1C` here?
**A.** 5.8 µM (active)

**Q.** What does the source list for `Clc1ccc(-c2[nH]nc3c2CCC3)cc1Cl`?
**A.** EC50 [1]: 8.42 µM (active); EC50 [2]: > 150 µM (not active); EC50 [3]: 13.9 µM (active)

**Q.** Which EC50 [1] does the source give for `Cc1cc(C)c2c(n1)sc1c(=O)n(CC(=O)c3ccccc3)cnc12` here?
**A.** 0.95 µM (active)

**Q.** And the EC50 [2]?
**A.** > 150 µM (not active)

**Q.** And the EC50 [3]?
**A.** 5.59 µM (active)

**Q.** Which EC50 [1] does the source give for `CCOC(=O)c1ccc(-c2ccc3c(=O)c4ccccc4n(C)c3c2)cc1F` here?
**A.** 3.46 µM (active)

**Q.** What about the EC50 [2] of the same molecule?
**A.** > 150 µM (not active)

**Q.** And the EC50 [3]?
**A.** > 150 µM (not active)

**Q.** What does the source list for `Cc1cc2c(n1-c1ccc(Br)cc1)CC(C)(C)CC2=O`?
**A.** EC50 [6]: 2.05 µM (active); EC50 [7]: > 60 µM (not active)

**Q.** Which IC50 [9] does the source give for `CCCn1c(C(C)NS(=O)(=O)c2ccccc2)n[nH]c1=S` (stereo not given) here?
**A.** > 47.1 µM (inactive)

**Q.** What about the EC50 [8] of the same molecule?
**A.** > 53 µM (inactive)

**Q.** For `COc1ccccc1CNc1nc(-c2ccoc2)nc2ccccc12`, which AC50 [5] is on record?
**A.** 6.31 µM (active)

**Q.** Which results are given for `COc1ccc(CN2CCCC(C(=O)c3ccc(Cl)cc3)C2)cc1Cn1cncn1` (stereo not given)?
**A.** EC50 [6]: 0.508 µM (active); EC50 [7]: > 30 µM (not active)

**Q.** With `O=C(Nc1ccn(Cc2c(F)c(F)cc(F)c2F)n1)c1ccc(COc2ccccc2Cl)cc1` as the molecule, how does the EC50 [6] read?
**A.** 0.867 µM (active)

**Q.** What about the EC50 [7] of the same molecule?
**A.** > 60 µM (inconclusive)

**Q.** Which EC50 [6] does the source give for `CN(CC(=O)Nc1ccc(S(=O)(=O)N2CCCC2)cc1)Cc1ccc(Cl)c(Cl)c1` here?
**A.** 2.04 µM (active)

**Q.** What about the EC50 [7] of the same molecule?
**A.** > 60 µM (not active)
